# According to patent US20130178450A1, “METHODS FOR INCREASING THE PRODUCTION OR ACTIVITY OF CATALASE” (Nestec SA, priority 2010, published 2013):
# Tests used:
# Type in all cases: cell-based, canine
# catalase (CAT) [1] = experiment: Enzymatic activity of catalase in treated cbTCC cells (Cayman kit, Purpald); settings: 24 hours, mean ± standard deviation, control 11.20 ± 0.43
# Description: Treatments were done in at least triplicates. […] The enzymatic activity of catalase was determined using assay kits from Cayman Chemical Co., Ann Arbor, Mich., according to manufacturer's directions. The assay utilized the peroxidatic function of CAT for determination of enzymatic activity, based on the reaction of the enzyme with methanol in the presence of an optimal concentration of H2O2. […] Purpald specifically forms a bicyclic heterocycle with aldehydes, which upon oxidation changes from colorless to a purple color. The absorbance was read at 540 nm using a spectrophotometric plate reader. Results were calculated from standard curve from known samples and by using the provided equations. From that, the enzymatic activity of CAT was derived as nmol/min/ml CAT. Samples were done in triplicate. A one-tail t-test assuming equal variance was performed to determine significance.
# CAT = experiment: Quantitative PCR gene expression of CAT in cbTCC cells; settings: 24 hours, normalized to Cyclophilin A, mean ± SEM, control 1.86 ± 0.11
# Cu/ZnSOD = experiment: Quantitative PCR gene expression of Cu/ZnSOD in cbTCC cells; settings: 24 hours, normalized to Cyclophilin A, mean ± SEM, control 1.11 ± 0.02
# MnSOD = experiment: Quantitative PCR gene expression of MnSOD in cbTCC cells; settings: 24 hours, normalized to Cyclophilin A, mean ± SEM, control 1.28 ± 0.05
# PTHrP = experiment: Quantitative PCR gene expression of PTHrP in cbTCC cells; settings: 24 hours, normalized to Cyclophilin A, mean ± SEM, control 1.35 ± 0.09
# catalase (CAT) [2] = experiment: Western blot analysis of catalase protein expression in cbTCC cells; settings: 10^−9M, 24 hours, normalized to β-actin, control = 100 percent, ± standard deviation
# Description: (§1) Treatments were done in at least triplicates. […] Harvested cells were homogenized, and analyzed for the production of manganese superoxide dismutase (MnSOD), copper/zinc superoxide dismutase (Cu/ZnSOD), catalase (CAT), and glutathione peroxidase (GPX). Cell lysates were collected after centrifugation, and total protein was quantitated. […] Transblotted membranes were blocked overnight at 4° C. with the addition of 5% skim milk in Tris-buffered saline (TBS). The membranes were cut at the molecular weight of 37 kD (green band) and 25 kD (pink band). The top part of the membranes were stained for CAT, GPX, and β-actin, and the bottom part for MnSOD and Cu/ZnSOD. The primary antibodies for specific proteins were used at the following dilutions: […] Secondary antibodies are their respective IgG-HRP conjugates used at 1:2000. […] CAT, MnSOD and Cu/ZnSOD, n=7; GPX, n=4. Prior to transforming data as percent of control, a one-tail paired t-test assuming equal variance was performed to determine significance.
# [3] = tested on: manganese superoxide dismutase (MnSOD); experiment: Western blot analysis of MnSOD protein expression in cbTCC cells; settings: 10^−9M, 24 hours, normalized to β-actin, control = 100 percent, ± standard deviation
# Description: as §1
# [4] = tested on: copper/zinc superoxide dismutase (Cu/ZnSOD); experiment: Western blot analysis of Cu/ZnSOD protein expression in cbTCC cells; settings: 10^−9M, 24 hours, normalized to β-actin, control = 100 percent, ± standard deviation
# Description: as §1
# [5] = tested on: glutathione peroxidase (GPX); experiment: Western blot analysis of GPX protein expression in cbTCC cells; settings: 10^−9M, 24 hours, normalized to β-actin, control = 100 percent, ± standard deviation
# Description: as §1
# VDR = experiment: Quantitative PCR gene expression of VDR in cbTCC cells; settings: 24 hours, normalized to Cyclophilin A, mean ± SEM, control 2.09 ± 0.19
Structure (SMILES),Enzymatic activity of catalase (catalase (CAT) [1]; 10^−9M) [nmol/min/mL],Enzymatic activity of catalase (catalase (CAT) [1]; 10^−7M) [nmol/min/mL],CAT gene expression value by quantitative PCR (CAT; 10^−7 M),CAT gene expression value by quantitative PCR (CAT; 10^−9 M),Cu/ZnSOD gene expression value by quantitative PCR (Cu/ZnSOD; 10^−7 M),Cu/ZnSOD gene expression value by quantitative PCR (Cu/ZnSOD; 10^−9 M),MnSOD gene expression value by quantitative PCR (MnSOD; 10^−7 M),MnSOD gene expression value by quantitative PCR (MnSOD; 10^−9 M),PTHrP gene expression value by quantitative PCR (PTHrP; 10^−7 M),PTHrP gene expression value by quantitative PCR (PTHrP; 10^−9 M),"Catalase protein expression, percent intensity of the protein band relative to the control (catalase (CAT) [2]) [%]","MnSOD protein expression, percent intensity of the protein band relative to the control [3] [%]","Cu/ZnSOD protein expression, percent intensity of the protein band relative to the control [4] [%]","GPX protein expression, percent intensity of the protein band relative to the control [5] [%]",VDR gene expression value by quantitative PCR (VDR; 10^−7 M),VDR gene expression value by quantitative PCR (VDR; 10^−9 M)
"C=C1C(=CC=C2CCCC3(C)C(C(C)CC#CC(C)(C)O)=CCC23)CC(O)CC1O (stereo not drawn) [Analog V, 1α,25-dihydroxy-16-ene-23-yne-vitamin D3]",13.93 ± 0.53,,,,,,,,,,,,,,,
"C=C1/C(=C\C=C2/CCC[C@]3(C)[C@@H]([C@H](C)CCCC(C)(C)O)CC[C@@H]23)C[C@@H](O)C[C@@H]1O [Calcitriol, 1α,25-dihydroxyvitamin D3]",12.51 ± 0.42,12.24 ± 0.80,2.60 ± 0.11,2.13 ± 0.06,1.18 ± 0.03,1.16 ± 0.02,1.05 ± 0.03,1.15 ± 0.04,1.16 ± 0.05,1.36 ± 0.11,,,,,,
"C=C1/C(=C\C=C2/CCC[C@]3(C)[C@@H]([C@H](C)/C=C/C=C/C(O)(CC)CC)CC[C@@H]23)C[C@@H](O)C[C@@H]1O [Seocalcitol, 1α,25-dihydroxy-22,24-diene-24,26,27-trihomovitamin D]",13.99 ± 0.99,,2.66 ± 0.08,2.55 ± 0.13,1.17 ± 0.01,1.20 ± 0.07,1.11 ± 0.05,1.16 ± 0.05,1.20 ± 0.07,1.30 ± 0.02,162.68 ± 39.88,113.48 ± 20.56,101.27 ± 26.41,81.85 ± 37.45,1.99 ± 0.09,1.45 ± 0.10
